Biological target: T1, sGC α1/β1 heterodimer (Homo sapiens, UniProt Q02108+Q02153)
T1 construct: expressed in transfected cells
T1 sequence (Q02108 1-690 partner): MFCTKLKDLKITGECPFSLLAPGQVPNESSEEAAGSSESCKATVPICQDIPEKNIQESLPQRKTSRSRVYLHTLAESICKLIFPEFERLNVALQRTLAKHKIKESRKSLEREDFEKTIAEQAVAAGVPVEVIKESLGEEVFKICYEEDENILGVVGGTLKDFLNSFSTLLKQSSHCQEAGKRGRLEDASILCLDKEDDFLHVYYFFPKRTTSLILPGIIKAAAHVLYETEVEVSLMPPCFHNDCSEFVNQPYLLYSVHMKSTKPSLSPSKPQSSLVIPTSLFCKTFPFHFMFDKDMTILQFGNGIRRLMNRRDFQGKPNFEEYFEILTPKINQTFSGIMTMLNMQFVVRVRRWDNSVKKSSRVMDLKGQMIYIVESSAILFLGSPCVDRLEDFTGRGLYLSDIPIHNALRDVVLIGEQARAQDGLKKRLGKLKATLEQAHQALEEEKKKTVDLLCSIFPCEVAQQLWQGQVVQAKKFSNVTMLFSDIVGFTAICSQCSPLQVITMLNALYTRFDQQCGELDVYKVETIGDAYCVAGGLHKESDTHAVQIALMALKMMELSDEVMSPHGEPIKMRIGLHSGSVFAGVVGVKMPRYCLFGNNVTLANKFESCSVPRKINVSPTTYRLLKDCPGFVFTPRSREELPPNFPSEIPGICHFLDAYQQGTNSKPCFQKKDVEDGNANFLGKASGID
T1 sequence (Q02153 1-619): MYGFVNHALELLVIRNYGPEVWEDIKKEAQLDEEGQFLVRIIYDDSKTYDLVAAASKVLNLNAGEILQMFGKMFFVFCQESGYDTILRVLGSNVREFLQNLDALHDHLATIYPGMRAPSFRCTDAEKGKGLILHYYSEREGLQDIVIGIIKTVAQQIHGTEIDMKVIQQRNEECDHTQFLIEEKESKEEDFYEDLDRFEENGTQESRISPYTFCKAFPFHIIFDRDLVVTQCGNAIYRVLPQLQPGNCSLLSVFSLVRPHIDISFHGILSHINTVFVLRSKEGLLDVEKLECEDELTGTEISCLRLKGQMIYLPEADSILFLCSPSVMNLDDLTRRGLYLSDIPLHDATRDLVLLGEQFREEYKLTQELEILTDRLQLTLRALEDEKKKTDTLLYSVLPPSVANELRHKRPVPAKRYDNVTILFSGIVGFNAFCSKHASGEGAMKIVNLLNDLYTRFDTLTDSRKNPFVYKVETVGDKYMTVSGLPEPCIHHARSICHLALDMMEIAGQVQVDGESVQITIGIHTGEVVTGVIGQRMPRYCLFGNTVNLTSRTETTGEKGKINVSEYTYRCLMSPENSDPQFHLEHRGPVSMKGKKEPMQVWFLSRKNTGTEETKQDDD
Assay: Cell-based sGC Functional Assay (cGMP level by HTRF in CHO-K1/sGC cells)
Conditions: with ODQ incubation (10 μM); for EC50: read-out: IP (nM) inflection point; for fold induction: read-out: maximum fold induction over DMSO control
Source text: Cell-based sGC Functional Assay
A CHO-K1 cell line stably expressing the sGC α1/β1 heterodimer was generated using a standard transfection protocol. CHO-K1 cells were transfected with plasmids pIREShyghsGCα1 and pIRESneo-hsGCβ1 simultaneously using FUGENE reagent. Clones that stably express both subunits were selected with hygromycin and neomycin for ˜2 weeks. Clone #7 was chosen for the assay and was designated CHO-K1/sGC. CHO-K1/sGC cells were maintained in F-K12 medium containing 10% heat-inactivated Fetal Bovine Serum (FBS), 100 μg/mL penicillin/streptomycin, 0.5 mg/mL hygromycin and 0.25 mg/mL G418. On the day of the assay, cells were harvested in EBSS (Earle's balanced salt solution) Assay Buffer (EAB) containing 5 mM MgCl2, 10 mM HEPES (4-(2-hydroxyethyl)piperazine-1-ethanesulfonic acid) and 0.05% BSA (bovine serum albumin) and cell density was adjusted to 0.75−1.25×10^6 cells/ml with EAB. IBMX (3-isobutyl-1-methylxanthin, 0.5 mM) was added to inhibit degradation of cGMP. Compounds were diluted from DMSO stock solutions and added to the assay at a final DMSO concentration of 1%. Cells were incubated with compounds in the presence and absence of 10 μM of 1H-(1,2,4)oxadiazolo(4,3-a) quinoxalin-1-one (ODQ) for 1 hr at 37° C. At the end of the incubation period, the reaction was terminated and the cells were lysed. The level of intracellular cGMP was determined using an HTRF-based assay kit (CisBio, 62GM2PEC), which detects the displacement of a fluorescence labeled cGMP from its specific antibody. The amount of cGMP was plotted against compound concentration in PRISM software and the inflection point (IP) and maximum fold induction over DMSO control were derived from the plot.

| EC50 | fold induction | Structure (SMILES) |
| --- | --- | --- |
| 15.8 nM | 119 | COC(=O)N1CCC(c2ccc(-c3ccc(C(F)(F)F)cc3-c3cccc(-n4ncc(C(=O)O)c4C(F)(F)F)n3)cc2)CC1 [Example 127, 1-{6-[4′-[1-(methoxycarbonyl)piperidin-4-yl]-4-(trifluoromethyl)biphenyl-2-yl]pyridin-2-yl}-5-(trifluoromethyl)-1H-pyrazole-4-carboxylic acid] |
| 78.8 nM | 162 | O=C(O)c1cnn(-c2cccc(-c3cc(F)ccc3-c3ccc(C4CCN(CCC(F)(F)F)CC4)cc3)n2)c1C(F)(F)F [Example 136, 1-(6-{4-fluoro-4′-[1-(3,3,3-trifluoropropyl)piperidin-4-yl]biphenyl-2-yl}pyridin-2-yl)-5-(trifluoromethyl)-1H-pyrazole-4-carboxylic acid] |
| 16.3 nM | 248 | O=C(O)c1cnn(-c2cccc(-c3cc(C(F)(F)F)cnc3-c3ccc(C4CCN(CC(F)(F)F)CC4)cc3)n2)c1C(F)(F)F [Example 61, 1-[2′-{4-[1-(2,2,2-trifluoroethyl)piperidin-4-yl]phenyl}-5′-(trifluoromethyl)-2,3′-bipyridin-6-yl]-5-(trifluoromethyl)-1H-pyrazole-4-carboxylic acid] |
| 14.6 nM | 231 | O=C(O)c1cnn(-c2cccc(-c3cc(Cl)ccc3-c3ccc(C4CCN(CC(F)(F)F)CC4)cc3)n2)c1C(F)(F)F [Example 60, 1-(6-{4-chloro-4′-[1-(2,2,2-trifluoroethyl)piperidin-4-yl]biphenyl-2-yl}pyridin-2-yl)-5-(trifluoromethyl)-1H-pyrazole-4-carboxylic acid] |
| 30.2 nM | 281 | O=C(O)c1cnn(-c2cccc(-c3cc(Cl)ccc3-c3ccc(C4CCN(C(=O)C5CC5)CC4)cc3)n2)c1C(F)(F)F [Example 94, 1-(6-{4-chloro-4′-[1-(cyclopropylcarbonyl)piperidin-4-yl]biphenyl-2-yl}pyridin-2-yl)-5-(trifluoromethyl)-1H-pyrazole-4-carboxylic acid] |
| 9.8 nM | 703 | O=C(O)c1cnn(-c2cccc(-c3cc(Cl)ccc3-c3ccc(N4CCN(CC(F)(F)F)CC4)cc3)n2)c1C(F)(F)F [Example 175, 1-(6-{4-chloro-4′-[4-(2,2,2-trifluoroethyl)piperazin-1-yl]biphenyl-2-yl}pyridin-2-yl)-5-(trifluoromethyl)-1H-pyrazole-4-carboxylic acid] |

From US8895583B2, “Soluble guanylate cyclase activators” (Merck Sharp & Dohme Corp., priority 2010, dated 2014)
